Test results reported in patent publication US20180208605A1, “Substituted Aza Compounds as IRAK-4 Inhibitors” (AURIGENE DISCOVERY TECHNOLOGIES LIMITED, priority 2015, published 2018).
Where a name gives a salt, the structure may show the parent alone.

Molecular target: T1, recombinant IRAK-4 kinase (Homo sapiens, UniProt Q9NWZ3)
T1 construct: purchased Millipore, USA
T1 sequence (Q9NWZ3 1-460): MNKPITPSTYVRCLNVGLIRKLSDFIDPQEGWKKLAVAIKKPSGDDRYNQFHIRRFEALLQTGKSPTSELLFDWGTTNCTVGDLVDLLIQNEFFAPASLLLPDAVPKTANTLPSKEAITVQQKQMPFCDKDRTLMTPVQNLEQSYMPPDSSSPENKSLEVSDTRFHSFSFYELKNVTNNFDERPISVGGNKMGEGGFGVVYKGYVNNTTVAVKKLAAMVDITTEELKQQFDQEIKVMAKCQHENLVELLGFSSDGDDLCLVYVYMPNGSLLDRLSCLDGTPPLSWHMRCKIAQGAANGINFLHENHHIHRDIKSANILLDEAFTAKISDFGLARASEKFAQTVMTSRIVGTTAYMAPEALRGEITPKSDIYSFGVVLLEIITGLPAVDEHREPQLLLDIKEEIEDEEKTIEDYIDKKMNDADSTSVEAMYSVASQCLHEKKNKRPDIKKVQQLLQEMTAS
Assay: IRAK-4 Biochemical Assay (TR-FRET, percent inhibition)
Conditions: TR-FRET, 20 μM ATP, 100 nM Biotin Histone H3; for inhibition at 0.1 µM: read-out: % inhibition of IRAK-4 @0.1 μM, compound at 0.1 μM; for inhibition at 1 µM: read-out: % inhibition of IRAK-4 @ 1 μM, compound at 1 μM
Experimental: Compounds were tested for their potential to inhibit IRAK-4 enzyme in a TR-FRET assay using recombinant IRAK-4 kinase from Millipore, USA. The assay buffer was 50 mM Tris-HCl pH 7.5, 20 mM MgCl2, 1 mM EGTA, 2 mM DTT, 3 mM MnCl2 and 0.01% Tween 20.5 ng of IRAK-4 kinase was used for the assay. After pre-incubation of enzyme with test compound for 30 minutes at room temperature, a substrate mixture containing 100 nM Biotin Histone H3 (Millipore, USA) and 20 μM ATP (Sigma, USA) was added and the reaction was incubated for 30 min. Post incubation, the reaction was stopped by the addition of stop mix containing 40 mM EDTA, 1 nM of Europium-Anti-Phospho-Histone H3 (Ser10) antibody (Perkin Elmer, USA) and 20 nM SureLight Allophycocyanin-Streptavidin (Perkin Elmer, USA). The fluorescence emission at 615 nm and 665 nm were measured at an excitation of 340 nm and the percent inhibition was estimated from the ratio of the fluorescence intensities [(F665/F615)×10000].

| SMILES | inhibition at 0.1 µM [%] | inhibition at 1 µM [%] | % inhibition of IRAK-4 @0.1 μM (compound at 0.1 μM) [%] | % inhibition of IRAK-4 @ 1 μM (compound at 1 μM) [%] |
| --- | --- | --- | --- | --- |
| Cc1cc(-c2ccc(C(=O)Nc3cc4sc(N5CCOCC5)nc4nc3N3CCC(O)(CO)CC3)o2)ccn1 [Example 2, N-(5-(4-hydroxy-4-(hydroxymethyl)piperidin-1-yl)-2-morpholinothiazolo[4,5-b]pyridin-6-yl)-5-(2-methylpyridin-4-yl)furan-2-carboxamide hydrochloride] | 98 | 99 | – | – |
| Cc1cc(-c2ncc(C(=O)Nc3cc4sc(N5CCOCC5)nc4nc3N3CCC(O)(CO)CC3)o2)ccn1 [Example 4, N-(5-(4-hydroxy-4-(hydroxymethyl)piperidin-1-yl)-2-morpholinothiazolo[4,5-b]pyridin-6-yl)-2-(2-methylpyridin-4-yl)oxazole-5-carboxamide hydrochloride] | 99 | 99 | – | – |
| Cc1cc(-c2ccc(C(=O)Nc3cc4sc(N5CCOCC5)nc4nc3N3CCCC(O)(CO)C3)o2)ccn1 (stereo not shown) [Example 5, N-(5-(3-hydroxy-3-(hydroxymethyl)piperidin-1-yl)-2-morpholinothiazolo[4,5-b]pyridin-6-yl)-5-(2-methylpyridin-4-yl)furan-2-carboxamide hydrochloride] | 98 | 99 | – | – |
| Cc1cc(-c2nc(C(=O)Nc3cc4sc(N5CCOCC5)nc4nc3OC3CCC(N4CCOCC4)CC3)co2)ccn1 (stereo not shown) [Example 6, 2-(2-methylpyridin-4-yl)-N-(2-morpholino-5-(((1r,4r)-4-morpholinocyclohexyl)oxy)thiazolo[4,5-b]pyridin-6-yl)oxazole-4-carboxamide hydrochloride] | 100 | 100 | – | – |
| Cc1cc(-c2nc(C(=O)Nc3cc4sc(N5CCNCC5)nc4nc3N3CCCCC3)co2)ccn1 [Example 7, 2-(2-methylpyridin-4-yl)-N-(2-(piperazin-1-yl)-5-(piperidin-1-yl)thiazolo[4,5-b]pyridin-6-yl)oxazole-4-carboxamide hydrochloride] | 99 | 99 | – | – |
| O=C(Nc1cc2sc(N3CCOCC3)nc2nc1N1CCC(O)(CO)CC1)c1cccc(N2CC[C@H](O)C2)n1 [Example 8, (S)-N-(5-(4-hydroxy-4-(hydroxymethyl)piperidin-1-yl)-2-morpholinothiazolo[4,5-b]pyridin-6-yl)-6-(3-hydroxypyrrolidin-1-yl)picolinamide hydrochloride] | 97 | 98 | – | – |
| Cc1cc(-c2nc(C(=O)Nc3cc4sc(N5CCOCC5)nc4nc3N3CCC(O)(CO)C3)co2)ccn1 (stereo not shown) [Example 9, N-(5-(3-hydroxy-3-(hydroxymethyl)pyrrolidin-1-yl)-2-morpholinothiazolo[4,5-b]pyridin-6-yl)-2-(2-methylpyridin-4-yl)oxazole-4-carboxamide hydrochloride] | 101 | 99 | – | – |
| Cc1cc(-c2nc(C(=O)Nc3cc4sc(N5CCN(C(=O)CO)CC5)nc4nc3N3CCCCC3)co2)ccn1 [Example 10, N-(2-(4-(2-hydroxyacetyl)piperazin-1-yl)-5-(piperidin-1-yl)thiazolo[4,5-b]pyridin-6-yl)-2-(2-methylpyridin-4-yl)oxazole-4-carboxamide hydrochloride] | 100 | 100 | – | – |
| Cn1cc(-c2nc(C(=O)Nc3cc4sc(N5CCOCC5)nc4nc3N3CCCCC3)co2)cc(F)c1=O [Example 13, 2-(5-fluoro-1-methyl-6-oxo-1,6-dihydropyridin-3-yl)-N-(2-morpholino-5-(piperidin-1-yl)thiazolo[4,5-b]pyridin-6-yl)oxazole-4-carboxamide] | 98 | 98 | – | – |
| Cc1ccc(-c2nc3nc(N4CCOCC4)oc3cc2NC(=O)c2coc(-c3ccnc(C)c3)n2)nc1 [Example 14, N-(5-(5-methylpyridin-2-yl)-2-morpholinooxazolo[4,5-b]pyridin-6-yl)-2-(2-methylpyridin-4-yl)oxazole-4-carboxamide] | 99 | 100 | – | – |
| Cc1cc(-c2nc(C(=O)Nc3cc4oc(N5CCOCC5)nc4nc3N3CCCC(O)(CO)C3)co2)ccn1 (stereo not shown) [Example 15, N-(5-(3-hydroxy-3-(hydroxymethyl)piperidin-1-yl)-2-morpholinooxazolo[4,5-b]pyridin-6-yl)-2-(2-methylpyridin-4-yl)oxazole-4-carboxamide hydrochloride] | 96 | 100 | – | – |
| Cc1cc(-c2nc(C(=O)Nc3cc4oc(N5CCOCC5)nc4nc3OC3CCC(N4CCOCC4)CC3)co2)ccn1 (stereo not shown) [Example 16, 2-(2-methylpyridin-4-yl)-N-(2-morpholino-5-(((1r,4r)-4-morpholinocyclohexyl)oxy)oxazolo[4,5-b]pyridin-6-yl)oxazole-4-carboxamide hydrochloride] | 94 | 99 | – | – |
| NC1CCCN(c2ccn3ncc(C(=O)Nc4cc5sc(N6CCOCC6)nc5nc4C4CC4)c3n2)C1 (stereo not shown) [Example 21, 5-(3-aminopiperidin-1-yl)-N-(5-cyclopropyl-2-morpholinothiazolo[4,5-b]pyridin-6-yl)pyrazolo[1,5-a]pyrimidine-3-carboxamide] | 97 | 98 | – | – |
| NCCNc1ccn2ncc(C(=O)Nc3cc4sc(N5CCOCC5)nc4nc3C3CC3)c2n1 [Example 22, 5-((2-aminoethyl)amino)-N-(5-cyclopropyl-2-morpholinothiazolo[4,5-b]pyridin-6-yl)pyrazolo[1,5-a]pyrimidine-3-carboxamide] | 97 | 98 | – | – |
| NC1CCN(c2ccn3ncc(C(=O)Nc4cc5sc(N6CCOCC6)nc5nc4C4CC4)c3n2)C1 (stereo not shown) [Example 23, 5-(3-aminopyrrolidin-1-yl)-N-(5-cyclopropyl-2-morpholinothiazolo[4,5-b]pyridin-6-yl)pyrazolo[1,5-a]pyrimidine-3-carboxamide hydrochloride] | 86 | 97 | – | – |

Second part, the compound after the results:

| inhibition at 0.1 µM [%] | inhibition at 1 µM [%] | % inhibition of IRAK-4 @0.1 μM (compound at 0.1 μM) [%] | % inhibition of IRAK-4 @ 1 μM (compound at 1 μM) [%] | SMILES |
| --- | --- | --- | --- | --- |
| 97 | 98 | – | – | Cn1cc(-c2nc(C(=O)Nc3cc4sc(N5CCOCC5)nc4nc3N3CCCCC3)co2)ccc1=O [Example 3, 2-(1-methyl-6-oxo-1,6-dihydropyridin-3-yl)-N-(2-morpholino-5-(piperidin-1-yl)thiazolo[4,5-b]pyridin-6-yl)oxazole-4-carboxamide] |
| 99 | 98 | – | – | Nc1cccc(-c2nc(C(=O)Nc3cc4sc(N5CCOCC5)nc4nc3N3CCCCC3)co2)n1 [Example 11, 2-(6-aminopyridin-2-yl)-N-(2-morpholino-5-(piperidin-1-yl)thiazolo[4,5-b]pyridin-6-yl)oxazole-4-carboxamide hydrochloride] |
| 98 | 98 | – | – | Nc1cc(-c2nc(C(=O)Nc3cc4sc(N5CCOCC5)nc4nc3N3CCCCC3)co2)c(Cl)cn1 [Example 12, 2-(2-amino-5-chloropyridin-4-yl)-N-(2-morpholino-5-(piperidin-1-yl)thiazolo[4,5-b]pyridin-6-yl)oxazole-4-carboxamide] |
| – | – | 98 | 99 | O=C(Nc1cc2sc(N3CCOCC3)nc2nc1N1CCCCC1)c1cnn2cccnc12 [Example 19, N-(2-morpholino-5-(piperidin-1-yl)thiazolo[4,5-b]pyridin-6-yl)pyrazolo[1,5-a]pyrimidine-3-carboxamide] |
| 97 | 98 | – | – | Cc1ccc(-c2nc3nc(N4CCOCC4)sc3cc2NC(=O)c2cnn3cccnc23)nc1 [Example 20, N-(5-(5-methylpyridin-2-yl)-2-morpholinothiazolo[4,5-b]pyridin-6-yl)pyrazolo[1,5-a]pyrimidine-3-carboxamide] |
| 97 | 97 | – | – | O=C(Nc1cc2oc(N3CCOCC3)nc2nc1N1CCCCC1)c1cnn2cccnc12 [Example 24, N-(2-morpholino-5-(piperidin-1-yl)oxazolo[4,5-b]pyridin-6-yl)pyrazolo[1,5-a]pyrimidine-3-carboxamide] |
| 55 | 96 | – | – | O=C(Nc1cc2oc(N3CCOCC3)nc2nc1N1CC[C@@H](O)C1)c1cnn2cccnc12 [Example 25, (R)—N-(5-(3-hydroxypyrrolidin-1-yl)-2-morpholinooxazolo[4,5-b]pyridin-6-yl)pyrazolo[1,5-a]pyrimidine-3-carboxamide] |
| 87 | 92 | – | – | N[C@H]1CCN(c2cccc(C(=O)Nc3cc4sc(N5CCOCC5)nc4nc3N3CCCCC3)n2)C1 [Example 26, (S)-6-(3-aminopyrrolidin-1-yl)-N-(2-morpholino-5-(piperidin-1-yl)thiazolo[4,5-b]pyridin-6-yl)picolinamide] |
